Columns and labels:
Type in all cases: cell-based
[1] = test system: Ishikawa (K-Ras wild type cell line); experiment: Viability assay (CellTiterBlue, 72 hr) Ishikawa; settings: Homo sapiens, GI50, CellTiterBlue, Ishikawa K-Ras wild-type
In short: (§1)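 Fluorescence at Ex550/Em590, read 3 hr after CellTiterBlue addition, served as the viability signal following 72 hr compound treatment. Wells held 1000 cells, pre-incubated 18 hr at 37 °C, with 0.5% DMSO final. GI50 derived with DMSO as 100% and 100 uM tamoxifen as 0% viability.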

[2] = test system: U87-MG (K-Ras wild type cell line); experiment: Viability assay (CellTiterBlue, 72 hr) U87-MG; settings: Homo sapiens, U-87 MG, GI50, CellTiterBlue, U87-MG K-Ras wild-type
In short: as §1

[3] = test system: HCC827 (K-Ras wild type cell line); experiment: Viability assay (CellTiterBlue, 72 hr) HCC827; settings: Homo sapiens, GI50, CellTiterBlue, HCC827 K-Ras wild-type
In short: as §1

[4] = test system: A375 (K-Ras wild type cell line); experiment: Viability assay (CellTiterBlue, 72 hr) A375; settings: Homo sapiens, A-375, GI50, CellTiterBlue
Experimental: Viability assays were performed on exemplary compounds and Table 2 below lists exemplary results for selected compounds tested on K-Ras wild type cell lines (Ishikawa, U87-MG, HCC827, and A375) and various K-Ras mutant cell lines (Panc1-G12D; Panc10.05-G12D; HCT116-G31D). Results are expressed in μM and corresponding structures are shown in FIGS. 2A-2G and Examples 1-152, above.
Cells are counted and seeded at 1000 cells/36 ul medium/well into 384-well microplates. Cells are returned to 37° C. CO2 incubator for 18 hr. Drug is made as 200× in DMSO and diluted into medium to 10×. To each well is added 4 ul 10× drug, and plates are returned to the incubator. Final assay DMSO concentration is 0.5%. After 72 hr, 8 ul CellTiterBlue (Promega) is added to each well. After 3 hr, fluorescence (Ex550/Em590) is determined on the Victor Plate Reader (Perkin Elmer). Assay range is determined by DMSO control (100% viability) and 100 uM tamoxifen (0% viability). GI50 values are calculated using Graphpad Prism.

Panc1-G12D = experiment: Viability assay (CellTiterBlue, 72 hr) Panc1; settings: Homo sapiens, PANC-1, GI50, CellTiterBlue, Panc1 K-Ras G12D, read-out: 72 hr Cell Viability Panc1 (G12D)
In short: as §1

Panc10.05-G12D = experiment: Viability assay (CellTiterBlue, 72 hr) Panc10.05; settings: Homo sapiens, Panc1005, GI50, CellTiterBlue, Panc10.05 K-Ras G12D, read-out: 72 hr Cell Viability Panc10.05 (G12D)
In short: as §1

HCT116-G31D = experiment: Viability assay (CellTiterBlue, 72 hr) HCT116; settings: Homo sapiens, HCT-116, GI50, CellTiterBlue, HCT116 K-Ras G13D, read-out: 72 hr Cell Viability HCT116 (G13D)
In short: as §1

[5] = test system: phospho-ERK in HCC827 (Wild-type); experiment: In-Cell Western phospho-ERK, HCC827; settings: Homo sapiens, 1 h; HCC827, one hour treatment; read-out: In-Cell Western HCC827 (Wild-type) Erk (P)
Experimental: (§2) In-cell phosphorylation assays for Erk and Akt were performed on several of the compounds and exemplary results are shown in Table 3 below using HCC827 and A375 cell lines for wild type K-Ras and Panc1 and Panc10.05 cell lines for G12D K-Ras mutants. Results are expressed in μM and corresponding structures are shown in FIGS. 2A-2G and Examples 1-152, above.
(§3) Cells are seeded in complete medium into black sided, clear-bottom 384-well microplates at 3000 cells/[…]/well. Plates are returned to 37° C. CO2 incubator for 18 hr. Drug is made as 200× in DMSO and diluted into medium to 10×. To each well is added 4 ul 10× test article or controls, and plates are returned to the incubator. Final assay DMSO concentration is 0.5%. After one hour, cells are fixed in formaldehyde, rinsed & permeabilized with triton X-100, and blocked with BSA/Goat serum blocking solution. Primary phospho-Akt and phospho-ERK antibodies are added and plates are incubated overnight at 4° C. Plates are rinsed with Tween-20 wash buffer and secondary antibody (Goat anti-rabbit, Thermofisher) is added. After 2 hours, plates are rinsed in Tween-20 wash buffer, and then PBS. Plates are imaged on the Celigo (Nexcelom) and cellular fluorescence is quantitated. Full inhibition of phospho-Akt is achieved with 1 uM BEZ235 (Sellekchem), while full inhibition of phospho-ERK is achieved with 1 uM MEK Inhibitor II Calbiochem). EC50 values are calculated using Graphpad Prism.

[6] = test system: phospho-ERK in A375 (Wild-type); experiment: In-Cell Western phospho-ERK, A375; settings: Homo sapiens, A-375, 1 h; A375, one hour treatment; read-out: In-Cell Western A375 (Wild-type) Erk (P)
Experimental: as §2, §3

[7] = test system: phospho-Akt in A375 (Wild-type); experiment: In-Cell Western phospho-Akt, A375; settings: Homo sapiens, A-375, 1 h; A375, one hour treatment; read-out: In-Cell Western A375 (Wild-type) Akt (P)
Experimental: as §2, §3

[8] = test system: phospho-ERK in Panc1 (G12D); experiment: In-Cell Western phospho-ERK, Panc1; settings: Homo sapiens, PANC-1, 1 h; Panc1, one hour treatment; read-out: In-Cell Western Panc1 (G12D) Erk (P)
Experimental: as §2, §3

[9] = test system: phospho-Akt in Panc1 (G12D); experiment: In-Cell Western phospho-Akt, Panc1; settings: Homo sapiens, PANC-1, 1 h; Panc1, one hour treatment; read-out: In-Cell Western Panc1 (G12D) Akt (P)
Experimental: as §2, §3

[10] = test system: phospho-ERK in Panc10.05 (G12D); experiment: In-Cell Western phospho-ERK, Panc10.05; settings: Homo sapiens, Panc1005, 1 h; Panc10.05, one hour treatment; read-out: In-Cell Western Panc10.05 (G12D) Erk (P)
Experimental: as §2, §3

[11] = test system: phospho-Akt in Panc10.05 (G12D); experiment: In-Cell Western phospho-Akt, Panc10.05; settings: Homo sapiens, Panc1005, 1 h; Panc10.05, one hour treatment; read-out: In-Cell Western Panc10.05 (G12D) Akt (P)
Experimental: as §2, §3

K-Ras G12D = target: T1, K-Ras G12D (Homo sapiens, UniProt P01116, G12D); experiment: G-LISA Ras activation, 293H cells transfected with G12D mutant; settings: compound 1 hour
T1 construct: expressed in transfected cells; host or cells: 293H cells
In short: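 Active Ras was quantified by G-LISA in lysates of 293H cells transiently expressing wild-type or mutant Ras. Compounds (3.125-25 μM) were applied for 1 hour; only wild-type transfected cells were stimulated with 100 ng/ml EGF for 2 minutes.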

wild type K-Ras = target: T2, wild type K-Ras (Homo sapiens, UniProt P01116); experiment: G-LISA Ras activation, 293H cells transfected with Ras wild-type, EGF stimulated; settings: compound 1 hour, then 100 ng/ml EGF 2 minutes
T2 construct: expressed in transfected cells; host or cells: 293H cells
Experimental: 293H cells were seeded in 6-wells at 0.6×10^6 cells per well and transfected next day with 5 μg of Ras wild-type, or G12C, G12D or G12V mutant DNA plasmid vector using transfection reagent Lipofectamine 3000. Next day cells were treated with 3.125-25 μM of Ras compounds for 1 hour. Wild-type transfected cells were subsequently treated with 100 ng/ml EGF for 2 minutes. Cells were washed once in ice-cold PBS, lysed in complete lysis buffer on ice, and processed by G-LISA according to Cytoskeleton protocol.

T2 sequence (P01116 whole entry): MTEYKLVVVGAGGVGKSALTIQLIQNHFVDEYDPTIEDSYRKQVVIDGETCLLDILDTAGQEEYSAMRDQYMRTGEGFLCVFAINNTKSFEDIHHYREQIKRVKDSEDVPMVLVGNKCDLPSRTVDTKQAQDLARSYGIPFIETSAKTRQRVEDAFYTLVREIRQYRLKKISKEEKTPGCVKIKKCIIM
T1 sequence (P01116 whole entry G12D): as the sequence (P01116 whole entry) above, with G12D counted along it

SMILES | IC50 [1] | IC50 [2] | IC50 [3] | IC50 [4] | IC50 (Panc1-G12D) | IC50 (Panc10.05-G12D) | IC50 (HCT116-G31D) | EC50 [5] | EC50 [6] | EC50 [7] | EC50 [8] | EC50 [9] | EC50 [10] | EC50 [11] | IC50 (K-Ras G12D) | IC50 (wild type K-Ras)
O=C1CCc2cc(-c3csc(NC(=O)c4ccnn4-c4ccccc4)n3)ccc2N1 [Compound 47, N-(4-(2-oxo-1,2,3,4-tetrahydroquinolin-6-yl)thiazol-2-yl)-1-phenyl-1H-pyrazole-5-carboxamide] | > 25 µM | > 25 µM | > 25 µM | > 25 µM | > 25 µM | > 25 µM | > 25 µM | > 25 µM | > 25 µM | > 25 µM | > 25 µM | > 25 µM | > 25 µM | > 25 µM | – | –
Cc1nc(C)c(C(=O)Nc2nc(-c3ccc4c(c3)CCC(=O)N4Cc3cccnc3C#N)cs2)o1 [Compound 94, N-(4-(1-((2-cyanopyridin-3-yl)methyl)-2-oxo-1,2,3,4-tetrahydroquinolin-6-yl)thiazol-2-yl)-2,4-dimethyloxazole-5-carboxamide] | > 25 µM | > 25 µM | > 25 µM | > 25 µM | > 25 µM | > 25 µM | > 25 µM | > 25 µM | > 25 µM | > 25 µM | > 25 µM | > 25 µM | > 25 µM | > 25 µM | – | –
Cn1nccc1C(=O)Nc1nc(-c2ccc3c(c2)CCC(=O)N3)cs1 [Compound 51, 1-methyl-N-(4-(2-oxo-1,2,3,4-tetrahydroquinolin-6-yl)thiazol-2-yl)-1H-pyrazole-5-carboxamide] | > 25 µM | > 25 µM | > 25 µM | > 25 µM | > 25 µM | > 25 µM | > 25 µM | > 25 µM | > 25 µM | > 25 µM | > 25 µM | > 25 µM | 25 µM | – | 21.5 µM | –
Cc1nc(C2CCCC2)sc1C(=O)Nc1nc(-c2ccc3c(c2)CCC(=O)N3)cs1 [Compound 145, 2-cyclopentyl-4-methyl-N-(4-(2-oxo-1,2,3,4-tetrahydroquinolin-6-yl)thiazol-2-yl)thiazole-5-carboxamide] | > 25 µM | 16 µM | – | – | 11 µM | 7 µM | > 25 µM | – | – | – | 5 µM | 18 µM | 7 µM | 17 µM | 24 µM | > 25 µM
Cc1nn(C)cc1C(=O)Nc1nc(-c2ccc3c(c2)CCC(=O)N3)cs1 [Compound 21, 1,3-dimethyl-N-(4-(2-oxo-1,2,3,4-tetrahydroquinolin-6-yl)thiazol-2-yl)-1H-pyrazole-4-carboxamide] | 5 µM | – | 6 µM | – | 2 µM | 0.797 µM | 10 µM | – | – | – | > 25 µM | 12 µM | > 25 µM | 8 µM | 3.8 µM | 17.1 µM
Cc1cc(C(=O)Nc2nc(-c3ccc4c(c3)CCC(=O)N4)cs2)n(C)n1 [Compound 22, 1,3-dimethyl-N-(4-(2-oxo-1,2,3,4-tetrahydroquinolin-6-yl)thiazol-2-yl)-1H-pyrazole-5-carboxamide] | 4 µM | – | 22 µM | – | 1.3 µM | 0.734 µM | > 25 µM | – | – | – | > 25 µM | > 25 µM | > 25 µM | 27 µM | 4.6 µM | 12.6 µM
Cc1nc(C(C)C)sc1C(=O)Nc1nc(-c2ccc3c(c2)CCC(=O)N3)cs1 [Compound 3, 2-isopropyl-4-methyl-N-(4-(2-oxo-1,2,3,4-tetrahydroquinolin-6-yl)thiazol-2-yl)thiazole-5-carboxamide] | > 25 µM | 12 µM | – | – | 5.5 µM | 14 µM | 18 µM | – | – | – | 2 µM | 9 µM | 3 µM | 8 µM | – | 12 µM
Cc1nc(CNC(=O)OC(C)(C)C)sc1C(=O)Nc1nc(-c2ccc3c(c2)CCC(=O)N3)cs1 [Compound 143, tert-butyl ((4-methyl-5-((4-(2-oxo-1,2,3,4-tetrahydroquinolin-6-yl)thiazol-2-yl)carbamoyl)thiazol-2-yl)methyl)carbamate] | > 25 µM | 9 µM | – | – | 7 µM | 4 µM | > 25 µM | – | – | – | 8 µM | 14 µM | 8 µM | 12 µM | – | 19 µM
Cc1nc(C)c(C(=O)Nc2nc(-c3ccc4c(c3)CCC(=O)N4Cc3ccccc3)cs2)o1 [Compound 60, N-(4-(1-benzyl-2-oxo-1,2,3,4-tetrahydroquinolin-6-yl)thiazol-2-yl)-2,4-dimethyloxazole-5-carboxamide] | 6 µM | 14 µM | – | – | 2 µM | 13 µM | 7 µM | – | – | – | 4 µM | 6 µM | 3 µM | – | 7.4 µM | 8.6 µM
CCc1nc(C)c(C(=O)Nc2nc(-c3ccc4c(c3)CCC(=O)N4)cs2)o1 [Compound 5, 2-ethyl-4-methyl-N-(4-(2-oxo-1,2,3,4-tetrahydroquinolin-6-yl)thiazol-2-yl)oxazole-5-carboxamide] | > 25 µM | > 25 µM | – | – | 6 µM | 19 µM | 22 µM | – | – | – | – | 13 µM | – | 8 µM | 10.2 µM | 14.1 µM
